Patent US10093630B2, “Pyrazole compounds and methods of making and using same” (ABIDE THERAPEUTICS, INC., priority 2014, dated 2018)
Read-outs that look alike come from different tables or passages of the source.

Tests used:
Assay in all cases: In vitro competitive activity-based protein profiling (gel-based, FP-Rh or HT-01 probe)
Assay type in all cases: biochemical
[1] = molecular target: T1, ABHD6 (Mus musculus, UniProt Q8R2Y0); conditions: for inhibition at 1 µM: 1 μM inhibitor, read-out: % Inhibition at 1 μM, C = ABHD6; for inhibition at 10 µM: 10 μM inhibitor, read-out: % Inhibition at 10 μM, C = ABHD6; for IC50: mouse brain membrane fraction or cell lysates, 30 min preincubation at 37° C., read-out: Mouse (IC50 value, nM) ABHD6
T1 construct: Proteomes (mouse brain membrane fraction or cell lysates); from tissue; host or cells: mouse brain membrane fraction (or cell lysates, not specified)
T1 sequence (Q8R2Y0 1-336): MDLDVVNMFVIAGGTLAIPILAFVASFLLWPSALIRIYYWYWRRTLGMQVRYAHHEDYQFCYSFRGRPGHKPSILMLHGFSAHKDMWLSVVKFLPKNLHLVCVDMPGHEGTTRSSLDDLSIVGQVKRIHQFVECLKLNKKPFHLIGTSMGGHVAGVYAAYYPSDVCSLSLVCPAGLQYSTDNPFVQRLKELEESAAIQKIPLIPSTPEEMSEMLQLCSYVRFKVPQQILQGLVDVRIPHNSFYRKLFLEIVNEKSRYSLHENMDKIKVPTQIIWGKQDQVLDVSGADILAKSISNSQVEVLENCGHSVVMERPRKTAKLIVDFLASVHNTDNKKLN
Outline: (§1)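 Mouse brain membrane proteome or cell lysate (1.0 mg/mL protein) was preincubated with inhibitor at varying concentrations for 30 min at 37° C, then labelled with FP-Rh or HT-01 for 30 min at 37° C. After SDS-PAGE, residual hydrolase activity was quantified as in-gel fluorescence of each band.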

[2] = molecular target: T2, FAAH (Mus musculus, UniProt O08914); conditions: for inhibition at 10 µM: 10 μM inhibitor, read-out: % Inhibition at 10 μM, B = FAAH; for inhibition at 1 µM: 1 μM inhibitor, read-out: % Inhibition at 1 μM, B = FAAH; for IC50: mouse brain membrane fraction or cell lysates, 30 min preincubation at 37° C., read-out: Mouse (IC50 value, nM) FAAH
T2 construct: Proteomes (mouse brain membrane fraction or cell lysates); from tissue; host or cells: mouse brain membrane fraction (or cell lysates, not specified)
T2 sequence (O08914 1-579): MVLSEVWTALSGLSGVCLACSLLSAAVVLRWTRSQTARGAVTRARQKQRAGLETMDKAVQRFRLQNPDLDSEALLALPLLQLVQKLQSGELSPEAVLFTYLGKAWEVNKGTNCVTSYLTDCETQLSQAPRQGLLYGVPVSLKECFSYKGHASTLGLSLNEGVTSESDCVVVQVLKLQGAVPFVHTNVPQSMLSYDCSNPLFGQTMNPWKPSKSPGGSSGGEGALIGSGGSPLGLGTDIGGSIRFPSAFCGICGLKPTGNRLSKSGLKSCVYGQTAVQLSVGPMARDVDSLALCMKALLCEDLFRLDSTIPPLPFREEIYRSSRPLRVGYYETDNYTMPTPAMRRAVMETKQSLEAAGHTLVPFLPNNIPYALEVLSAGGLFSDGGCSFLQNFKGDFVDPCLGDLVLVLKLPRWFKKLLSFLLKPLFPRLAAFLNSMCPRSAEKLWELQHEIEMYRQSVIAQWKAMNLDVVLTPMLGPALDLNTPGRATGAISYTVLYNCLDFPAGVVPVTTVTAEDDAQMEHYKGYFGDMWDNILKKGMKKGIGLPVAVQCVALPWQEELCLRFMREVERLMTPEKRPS
Outline: as §1

[3] = molecular target: T3, MAGL (Mus musculus, UniProt O35678); conditions: for inhibition at 10 µM: 10 μM inhibitor; for inhibition at 1 µM: 1 μM inhibitor; for IC50: mouse brain membrane fraction or cell lysates, 30 min preincubation at 37° C., read-out: Mouse (IC50 value, nM) MAGL
T3 construct: Proteomes (mouse brain membrane fraction or cell lysates); from tissue; host or cells: mouse brain membrane fraction (or cell lysates, not specified)
T3 sequence (O35678 1-303): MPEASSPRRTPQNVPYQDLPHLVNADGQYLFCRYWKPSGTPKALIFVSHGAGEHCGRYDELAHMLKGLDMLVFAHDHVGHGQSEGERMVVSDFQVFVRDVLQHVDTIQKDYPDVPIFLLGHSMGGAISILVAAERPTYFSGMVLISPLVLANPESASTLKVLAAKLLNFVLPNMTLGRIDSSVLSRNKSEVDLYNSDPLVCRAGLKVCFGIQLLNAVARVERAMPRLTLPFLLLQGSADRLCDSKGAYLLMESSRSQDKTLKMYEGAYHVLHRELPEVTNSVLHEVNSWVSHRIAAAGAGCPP
Outline: as §1

[4] = molecular target: T4, PLA2G7 (Mus musculus, UniProt Q60963); conditions: for inhibition at 1 µM: 1 μM inhibitor, read-out: % Inhibition at 1 μM, D = PLA2G7; for inhibition at 10 µM: 10 μM inhibitor, read-out: % Inhibition at 10 μM, D = PLA2G7; for IC50: mouse brain membrane fraction or cell lysates, 30 min preincubation at 37° C.
T4 construct: Proteomes (mouse brain membrane fraction or cell lysates); from tissue; host or cells: mouse brain membrane fraction (or cell lysates, not specified)
T4 sequence (Q60963 22-440): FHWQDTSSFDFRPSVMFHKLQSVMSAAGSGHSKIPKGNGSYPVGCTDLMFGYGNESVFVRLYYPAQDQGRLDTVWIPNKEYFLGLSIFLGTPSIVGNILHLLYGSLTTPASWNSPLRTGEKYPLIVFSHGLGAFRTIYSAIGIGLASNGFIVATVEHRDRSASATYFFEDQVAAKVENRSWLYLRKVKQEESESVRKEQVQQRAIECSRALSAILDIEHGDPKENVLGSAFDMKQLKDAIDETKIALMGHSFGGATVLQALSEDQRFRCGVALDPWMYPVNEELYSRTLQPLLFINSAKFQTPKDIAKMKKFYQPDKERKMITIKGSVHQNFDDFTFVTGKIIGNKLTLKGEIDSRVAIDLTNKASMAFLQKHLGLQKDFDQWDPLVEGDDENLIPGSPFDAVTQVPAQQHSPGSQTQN
Outline: as §1

SMILES: O=C(c1cnn(C(=O)N2CCN(Cc3ccccn3)CC2)c1)N1CCCC1 [Example 81, (4-(Pyridin-2-ylmethyl)piperazin-1-yl)(4-(pyrrolidine-1-carbonyl)-1H-pyrazol-1-yl)methanone]
- inhibition at 1 µM [1]: < 25%
- inhibition at 10 µM [1]: > 75%
- inhibition at 10 µM [2]: > 75%
- inhibition at 10 µM [3]: < 25%
- inhibition at 1 µM [4]: < 25%
- inhibition at 10 µM [4]: > 75%

SMILES: CN(CCN(C)S(C)(=O)=O)C(=O)n1cc(Cl)cn1 [Example 198, 4-Chloro-N-methyl-N-(2-(N-methylmethylsulfonamido)ethyl)-1H-pyrazole-1-carboxamide]
- inhibition at 10 µM [1]: < 25%
- inhibition at 10 µM [2]: < 25%
- inhibition at 10 µM [3]: < 25%
- inhibition at 10 µM [4]: < 25%

SMILES: O=C(N1CCCC1)n1cc(-c2ccccc2)cn1 [Example 103, (4-Phenyl-1H-pyrazol-1-yl)(pyrrolidin-1-yl)methanone]
- inhibition at 10 µM [1]: < 25%
- inhibition at 10 µM [2]: > 75%
- inhibition at 10 µM [3]: < 25%
- inhibition at 10 µM [4]: > 75%

SMILES: O=C(N1CCN(Cc2ccncn2)CC1)n1cc(-c2ccccc2)cn1 [Example 62, (4-Phenyl-1H-pyrazol-1-yl)(4-(pyrimidin-4-ylmethyl)piperazin-1-yl)methanone]
- inhibition at 1 µM [1]: > 75%
- inhibition at 10 µM [1]: > 75%
- inhibition at 10 µM [2]: > 75%
- inhibition at 10 µM [3]: < 25%
- inhibition at 1 µM [4]: > 75%
- inhibition at 10 µM [4]: > 75%

SMILES: N#Cc1cnn(C(=O)N2CCN(c3ccccc3)CC2)c1 [Example 206, 1-(4-Phenylpiperazine-1-carbonyl)-1H-pyrazole-4-carbonitrile]
- inhibition at 1 µM [1]: > 75%
- inhibition at 10 µM [1]: > 75%
- inhibition at 1 µM [2]: > 75%
- inhibition at 10 µM [2]: > 75%
- inhibition at 1 µM [3]: > 75%
- inhibition at 10 µM [3]: > 75%
- inhibition at 1 µM [4]: > 75%
- inhibition at 10 µM [4]: > 75%

SMILES: N#Cc1cnn(C(=O)N2CCN(Cc3ccccc3)CC2)c1 [Example 9, 1-(4-Benzylpiperazine-1-carbonyl)-1H-pyrazole-4-carbonitrile]
- inhibition at 1 µM [1]: > 75%
- inhibition at 10 µM [1]: > 75%
- IC50 [1]: < 100 nM
- inhibition at 1 µM [2]: > 75%
- inhibition at 10 µM [2]: > 75%
- IC50 [2]: 100 to 1000 nM
- inhibition at 1 µM [3]: > 75%
- inhibition at 10 µM [3]: > 75%
- IC50 [3]: < 100 nM
- inhibition at 1 µM [4]: > 75%
- inhibition at 10 µM [4]: > 75%

SMILES: CC(=O)N1CCN(C(=O)n2cc(Cl)cn2)CC1 [Example 183, 1-(4-(4-Chloro-1H-pyrazole-1-carbonyl)piperazin-1-yl)ethanone]
- inhibition at 1 µM [1]: < 25%
- inhibition at 10 µM [1]: < 25%
- inhibition at 1 µM [2]: < 25%
- inhibition at 10 µM [2]: < 25%
- inhibition at 1 µM [3]: < 25%
- inhibition at 10 µM [3]: < 25%
- inhibition at 1 µM [4]: < 25%
- inhibition at 10 µM [4]: > 75%

SMILES: CCN(Cc1cccc(C)c1)C(=O)n1cc(C(F)(F)F)cn1 [Example 247, N-Ethyl-N-(3-methylbenzyl)-4-(trifluoromethyl)-1H-pyrazole-1-carboxamide]
- inhibition at 1 µM ([1]; gel-based competitive ABPP): 25 to 75%
- inhibition at 10 µM ([1]; gel-based competitive ABPP): > 75%
- IC50 [1]: 100 to 1000 nM
- inhibition at 1 µM ([2]; gel-based competitive ABPP): > 75%
- inhibition at 10 µM ([2]; gel-based competitive ABPP): > 75%
- IC50 [2]: 100 to 1000 nM
- inhibition at 1 µM ([3]; gel-based competitive ABPP): < 25%
- inhibition at 10 µM ([3]; gel-based competitive ABPP): > 75%
- IC50 [3]: 100 to 1000 nM
- inhibition at 1 µM ([4]; gel-based competitive ABPP): < 25%
- inhibition at 10 µM ([4]; gel-based competitive ABPP): < 25%
- IC50 [4]: > 1000 nM

SMILES: Cc1cnn(C(=O)N2CCCN(C)CC2)c1 [Example 167, (4-Methyl-1,4-diazepan-1-yl)(4-methyl-1H-pyrazol-1-yl)methanone]
- inhibition at 10 µM [1]: < 25%
- inhibition at 10 µM [2]: < 25%
- inhibition at 10 µM [3]: < 25%
- inhibition at 10 µM [4]: < 25%

SMILES: O=C(c1cnn(C(=O)N2CCN(Cc3nccs3)CC2)c1)N1CCC1 [Example 91, Azetidin-1-yl(1-(4-(thiazol-2-ylmethyl)piperazine-1-carbonyl)-1H-pyrazol-4-yl)methanone]
- inhibition at 1 µM [1]: < 25%
- inhibition at 10 µM [1]: > 75%
- inhibition at 10 µM [2]: > 75%
- IC50 [2]: > 1000 nM
- inhibition at 10 µM [3]: < 25%
- inhibition at 1 µM [4]: < 25%
- inhibition at 10 µM [4]: > 75%

SMILES: CNC(=O)c1cnn(C(=O)N2CCN(Cc3cccc(Oc4ccccc4)c3)CC2)c1 [Example 287, N-Methyl-1-(4-(3-phenoxybenzyl)piperazine-1-carbonyl)-1H-pyrazole-4-carboxamide]
- inhibition at 1 µM ([1]; gel-based competitive ABPP): > 75%
- IC50 [1]: < 100 nM
- inhibition at 1 µM ([2]; gel-based competitive ABPP): > 75%
- IC50 [2]: < 100 nM
- inhibition at 1 µM ([3]; gel-based competitive ABPP): > 75%
- IC50 [3]: < 100 nM
- inhibition at 1 µM ([4]; gel-based competitive ABPP): > 75%
- IC50 [4]: < 100 nM

SMILES: N#Cc1cnn(C(=O)N2CCN(C(=O)c3ccccc3)CC2)c1 [Example 176, 1-(4-Benzoylpiperazine-1-carbonyl)-1H-pyrazole-4-carbonitrile]
- inhibition at 1 µM [1]: < 25%
- inhibition at 10 µM [1]: > 75%
- inhibition at 1 µM [2]: < 25%
- inhibition at 10 µM [2]: 25 to 75%
- inhibition at 1 µM [3]: > 75%
- inhibition at 10 µM [3]: > 75%
- inhibition at 1 µM [4]: > 75%
- inhibition at 10 µM [4]: > 75%

SMILES: Cc1cnn(C(=O)N2CCN(Cc3ccccc3)CC2)c1 [Example 8, (4-Benzylpiperazin-1-yl)(4-methyl-1H-pyrazol-1-yl)methanone]
- inhibition at 1 µM [1]: > 75%
- inhibition at 10 µM [1]: > 75%
- inhibition at 1 µM [2]: < 25%
- inhibition at 10 µM [2]: 25 to 75%
- inhibition at 1 µM [3]: 25 to 75%
- inhibition at 10 µM [3]: > 75%
- inhibition at 1 µM [4]: < 25%
- inhibition at 10 µM [4]: > 75%

SMILES: Cc1cnn(C(=O)N2CCN(C)CC2)c1 [Example 163, (4-Methyl-1H-pyrazol-1-yl)(4-methylpiperazin-1-yl)methanone]
- inhibition at 1 µM [1]: < 25%
- inhibition at 10 µM [1]: 25 to 75%
- inhibition at 1 µM [2]: < 25%
- inhibition at 10 µM [2]: < 25%
- inhibition at 1 µM [3]: < 25%
- inhibition at 10 µM [3]: < 25%
- inhibition at 1 µM [4]: < 25%
- inhibition at 10 µM [4]: < 25%
